Results taken from patent US20230357179A1, “RAF KINASE INHIBITORS AND METHODS OF USE THEREOF” (Deciphera Pharmaceuticals, LLC, priority 2021, published 2023).

Columns and labels:
Format in all cases: cell-based
Miapaca-2 cells = experiment: MiaPaca-2 cell proliferation assay (1), resazurin, 96-well; conditions: Homo sapiens, MIA PaCa-2, inhibition of cell proliferation
Description: MiaPaca-2 Cell Proliferation Assay (1)
(§1) Miapaca-2 cells (catalog #CRL-1420) are obtained from the American Type Culture Collect (ATTC, Manassas, VA). Briefly, cells were grown in DMEM supplemented with 10% characterized fetal bovine serum (Invitrogen, Carlsbad, CA), 2.5% New Zealand sourced horse serum and 1% Penicillin/Streptomycin/L-Glutamine at 37° C., 5% CO2, and 95% humidity. Cells are expanded until reaching 70-95% confluency at which point they are subcultured or harvested for assay use. A serial dilution of test compound is dispensed into a 96-well black clear bottom plate in triplicate. Three thousand cells are added per well in 200 μL complete growth medium in the 96-well plate. Plates are incubated for 67-72 hours at 37° C., 5% CO2, and 95% humidity. At the end of the incubation, 40 μL of a 440 μM solution of resazurin (Sigma, St. Louis, MO) in PBS is added to each well of the plate and plates are incubated for an additional 5-6 hours at 37° C., 5% CO2, and 95% humidity. Plates are read on a Synergy2 or equivalent reader (Biotek, Winooski VT) using an excitation of 540 nm and an emission of 600 nm. Data is analyzed using Prism software (GraphPad, San Diego, CA) to calculate IC50 values.

H2405 cells = experiment: H2405 cell proliferation assay (1), resazurin, 96-well; conditions: Homo sapiens, NCI-H2405, inhibition of cell proliferation
Description: H2405 Cell Proliferation Assay (1)
as §1, with “H2405” for “Miapaca-2”, “#CRL-5944)” for “#CRL-1420)”, “RPMI 1640” for “DMEM”, “5%” for “10%”, “CA)” for “CA), 2.5% New Zealand sourced horse serum”

A375 cells = experiment: A375 cell proliferation assay (1), resazurin, 96-well; conditions: Homo sapiens, A-375, inhibition of cell proliferation
Summary of the method: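 Viability was read by resazurin fluorescence at 540 nm excitation and 600 nm emission, using a 440 μM solution added for 5–6 h at the end of culture. IC50 came from the curve fit.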

WM3928 cells = experiment: WM3928 cell proliferation assay (1), resazurin, 96-well; conditions: inhibition of cell proliferation
Description: WM3928 Cell Proliferation Assay (1)
WM3928 cells (#WM3928-01-0001) are obtained from Rockland Immunochemicals Inc (Gilbertsville, PA). Briefly, cells were grown in MCDB 153 medium (Sigma, #M7403, St. Louis, MO) supplemented with 20% Leibovitz's L-15 (ThermoFisher #11415-064, Waltham, MA), 2% heat inactivated fetal bovine serum (ThermoFisher, #A3840001, Waltham, MA), 5 μg/mL Insulin (Bovine Pancreas) (Sigma, #I0516, St. Louis, MO), 1.68 mM Calcium Chloride (Sigma, #C-34006, St. Louis, MO) and 1% Penicillin/Streptomycin/L-Glutamine (ThermoFisher #10378016, Waltham, MA) at 37° C., 5% CO2, and 95% humidity. Cells are expanded until reaching 70-95% confluency at which point they are subcultured or harvested for assay use. A serial dilution of test compound is dispensed into a 96-well black clear bottom plate in triplicate. Three thousand cells are added per well in 200 μL complete growth medium in the 96-well plate. Plates are incubated for 67-72 hours at 37° C., 5% CO2, and 95% humidity. At the end of the incubation, 40 μL of a 440 μM solution of resazurin (Sigma, #199303, St. Louis, MO) in PBS is added to each well of the plate and plates are incubated for an additional 6-7 hours at 37° C., 5% CO2, and 95% humidity. Plates are read on a Synergy2 or equivalent reader (Biotek, Winooski VT) using an excitation of 540 nm and an emission of 600 nm. Data is analyzed using Prism software (GraphPad, San Diego, CA) to calculate IC50 values.

SMILES	IC50 (Miapaca-2 cells)	IC50 (H2405 cells)	IC50 (A375 cells)	IC50 (WM3928 cells)
Cc1cc(F)c(NC(=O)NCCC(C)(C)C)cc1-c1cc(OCCO)nc(C2=CCOCC2)c1 [Example 7]	1000 to 10000 nM	≤ 100 nM	1000 to 10000 nM	100 to 500 nM
Cc1cc(F)c(NC(=O)NCCC(C)(C)C)cc1-c1cc(N2CCOCC2)nc(N2CCOCC2)c1 [Example 10]		500 to 1000 nM	100 to 500 nM	100 to 500 nM
Cc1cc(F)c(NC(=O)NCCC(C)(C)F)cc1-c1cc(OCCO)nc(-c2ccnc3[nH]ccc23)c1 [Example 97]	1000 to 10000 nM	500 to 1000 nM	1000 to 10000 nM	100 to 500 nM
Cc1cc(F)c(NC(=O)NCC(C)C)cc1-c1cc(OCCO)nc(-c2ccnc(NC(=O)C3CC3)c2)c1 [Example 99]	1000 to 10000 nM	100 to 500 nM	1000 to 10000 nM	100 to 500 nM
Cc1cc(F)c(NC(=O)NCCC(C)(C)F)cc1-c1cccc(-c2ccnc3[nH]ncc23)c1 [Example 100]	1000 to 10000 nM	1000 to 10000 nM	1000 to 10000 nM	500 to 1000 nM
Cc1cc(F)c(NC(=O)NC2CC3(COC3)C2)cc1-c1cc(OCCO)nc(-c2ccnc3[nH]ncc23)c1 [Example 101]	1000 to 10000 nM	1000 to 10000 nM	1000 to 10000 nM	1000 to 10000 nM
Cc1ncc(NC(=O)NC[C@H](O)C(C)(C)C)cc1-c1ccnc(-c2ccnc(NC(=O)C3CC3)c2)c1 [Example 102]	1000 to 10000 nM	1000 to 10000 nM	1000 to 10000 nM	1000 to 10000 nM
Cc1cc(F)c(NC(=O)NCCC(F)F)cc1-c1cc(OCCO)nc(-c2ccnc(NC(=O)C3CC3)c2)c1 [Example 105]	1000 to 10000 nM	500 to 1000 nM	1000 to 10000 nM	500 to 1000 nM
Cc1ncc(NC(=O)NCCC2(C)CC2)cc1-c1ccnc(-c2ccnc(NC(=O)C3CC3)c2)n1 [Example 107]	1000 to 10000 nM	100 to 500 nM	1000 to 10000 nM	100 to 500 nM
COC(C)(C)CCNC(=O)Nc1cc(-c2ccnc(-c3ccnc(NC(=O)C4CC4)c3)n2)c(C)cc1F [Example 108]	1000 to 10000 nM	100 to 500 nM	500 to 1000 nM	100 to 500 nM
COC(=O)Nc1cc(-c2cc(-c3cc(NC(=O)NCCC(C)(C)C)cnc3C)ccn2)ccn1 [Example 109]	1000 to 10000 nM	1000 to 10000 nM	1000 to 10000 nM	100 to 500 nM
Cc1cc(F)c(NC(=O)NCCC2(C)COC2)cc1-c1cc(OCCO)nc(-c2ccnc3[nH]ncc23)c1 [Example 110]	1000 to 10000 nM	1000 to 10000 nM	1000 to 10000 nM	1000 to 10000 nM
Cc1cc(F)c(NC(=O)NCC23CC(F)(C2)C3)cc1-c1cc(OCCO)nc(-c2ccnc3[nH]ncc23)c1 [Example 111]	1000 to 10000 nM	1000 to 10000 nM	1000 to 10000 nM	1000 to 10000 nM
Cc1ncc(NC(=O)NCCC2(C)CC2)cc1-c1cc(OCCO)nc(-c2ccnc3c2CC(=O)N3)c1 [Example 112]	1000 to 10000 nM	1000 to 10000 nM	1000 to 10000 nM	1000 to 10000 nM
COC(=O)Nc1cc(-c2cnnc(-c3cc(NC(=O)NCCC(C)(C)OC)c(F)cc3C)c2)ccn1 [Example 140]	1000 to 10000 nM	1000 to 10000 nM	1000 to 10000 nM	
COC(C)(C)CCNC(=O)Nc1cc(-c2cc(-c3ccnc(NC(=O)C4CC4)c3)cnn2)c(C)cc1F [Example 142]	1000 to 10000 nM	500 to 1000 nM	1000 to 10000 nM	
COC(=O)Nc1cc(-c2nccc(-c3cc(NC(=O)NCCC4(OC)CC4)cnc3C)n2)ccn1 [Example 143]	1000 to 10000 nM	1000 to 10000 nM	1000 to 10000 nM	
COC(=O)Nc1cc(-c2cc(-c3cc(NC(=O)NCCC4(OC)CC4)c(F)cc3C)ccn2)ccn1 [Example 145]	1000 to 10000 nM	500 to 1000 nM	1000 to 10000 nM	
COC(=O)Nc1cc(-c2nccc(-c3cc(NC(=O)NCCC4(OC)CC4)c(F)cc3C)n2)ccn1 [Example 146]	1000 to 10000 nM	1000 to 10000 nM	1000 to 10000 nM	
COC(=O)Nc1cc(-c2nccc(-c3cc(NC(=O)NCCC(C)(C)F)c(F)cc3C)n2)ccn1 [Example 147]	1000 to 10000 nM	1000 to 10000 nM	1000 to 10000 nM	
COC(=O)Nc1cc(-c2cnnc(-c3cc(NC(=O)N4CCC(CC(F)(F)F)C4)c(F)cc3C)c2)ccn1 (centres unmarked) [Example 150]		500 to 1000 nM	1000 to 10000 nM	1000 to 10000 nM
COC(=O)Nc1cc(-c2cc(-c3cc(NC(=O)NC4CC(C)(C)C4)cnc3C)cc(OCCO)n2)ccn1 [Example 156]		100 to 500 nM	1000 to 10000 nM	100 to 500 nM
COC(=O)Nc1cc(-c2nc(OCCO)cc(-c3cc(NC(=O)NCCC(C)(C)F)c(F)cc3C)n2)ccn1 [Example 161]		≤ 100 nM	100 to 500 nM	≤ 100 nM
COC(=O)Nc1cc(-c2cccc(-c3cc(NC(=O)NCCC4(C)CC4)cnc3C)c2)ncn1 [Example 170]		100 to 500 nM	500 to 1000 nM	100 to 500 nM

Second part, led by results:

IC50 (Miapaca-2 cells)	IC50 (H2405 cells)	IC50 (A375 cells)	SMILES	IC50 (WM3928 cells)
1000 to 10000 nM	100 to 500 nM	500 to 1000 nM	Cc1cc(F)c(NC(=O)NCCC(C)(C)F)cc1-c1cc(OCCO)nc(-c2ccnc3[nH]ncc23)c1 [Example 94]	100 to 500 nM
1000 to 10000 nM	1000 to 10000 nM	1000 to 10000 nM	COC(=O)Nc1cc(-c2cc(-c3cc(NC(=O)NCCC4(C)CC4)cnc3C)ccn2)ccn1 [Example 103]	500 to 1000 nM
1000 to 10000 nM	100 to 500 nM	1000 to 10000 nM	COC1(CCNC(=O)Nc2cc(-c3cccc(-c4cc(NC(=O)C5CC5)ncn4)c3)c(C)cc2F)CC1 [Example 104]	100 to 500 nM
1000 to 10000 nM	100 to 500 nM	100 to 500 nM	Cc1cc(F)c(NC(=O)NCCC(C)C)cc1-c1cc(OCCO)nc(-c2ccnc(NC(=O)C3CC3)c2)c1 [Example 106]	≤ 100 nM
1000 to 10000 nM	100 to 500 nM	100 to 500 nM	Cc1ncc(NC(=O)NCCC2(C)CC2)cc1-c1cc(OCCO)nc(-c2ccnc(NC(=O)C3CC3)c2)c1 [Example 113]	≤ 100 nM
1000 to 10000 nM	500 to 1000 nM	1000 to 10000 nM	Cc1cc(F)c(NC(=O)NCCC(C)(C)F)cc1-c1nccc(-c2ccnc(NC(=O)C3CC3)c2)n1 [Example 114]	500 to 1000 nM
1000 to 10000 nM	500 to 1000 nM	100 to 500 nM	COC(=O)Nc1cc(-c2cc(-c3cc(NC(=O)NCCC(C)C)c(F)cc3C)cc(OCCO)n2)ccn1 [Example 115]	≤ 100 nM
1000 to 10000 nM	1000 to 10000 nM	1000 to 10000 nM	COC(=O)Nc1cc(-c2cnnc(-c3cc(NC(=O)NCCC(C)(C)F)c(F)cc3C)c2)ccn1 [Example 141]	
1000 to 10000 nM	1000 to 10000 nM	1000 to 10000 nM	COC[C@H]1CCN(C(=O)Nc2cc(-c3cc(-c4ccnc(NC(=O)OC)c4)cnn3)c(C)cc2F)C1 [Example 148]	
	100 to 500 nM	1000 to 10000 nM	COC(=O)Nc1cc(-c2cc(-c3cc(NC(=O)NCCC(C)(C)F)cnc3C)cc(OCCO)n2)ccn1 [Example 165]	1000 to 10000 nM
